Source: the NIST ThermoML archive (doi:10.1016/j.jct.2016.05.021)

Columns and labels:
[1] = xn = mol fraction of the nth substance listed; conditions: 100 kPa, Liquid; for speed of sound: Frequency=3 MHz, Sing-around technique in a fixed-path interferometer; for mass density: Vibrating tube method
[2] = refractive index (Na D-line) (dimensionless); xn = mol fraction of the nth substance listed; conditions: 100 kPa, Liquid, Standard Abbe refractometry

O=C1CCCN1 [2-pyrrolidinone] + CCCC[n+]1ccn(C)c1.O=S(=O)([N-]S(=O)(=O)C(F)(F)F)C(F)(F)F
Conditions	mass density, [1] [kg/m3]	refractive index, [2]	speed of sound, [1] [m/s]
298.15 K, x2 = 0	1107.16	1.48591	1634.3
298.15 K, x2 = 0.1242	1204.09	1.46742	1491.9
298.15 K, x2 = 0.22	1253.58	1.45836	1431.2
298.15 K, x2 = 0.3191	1292.55	1.45142	1387.3
298.15 K, x2 = 0.4048	1320.08	1.44661	1357.6
298.15 K, x2 = 0.51	1348.24	1.44176	1327.5
298.15 K, x2 = 0.5945	1367.5	1.43844	1306.9
298.15 K, x2 = 0.7171	1391.3	1.4343	1280.2
298.15 K, x2 = 0.8383	1411.52	1.43075	1256.7
298.15 K, x2 = 0.9084	1421.66	1.42892	1244
303.15 K, x2 = 0	1103.07	1.48403	1617.7
303.15 K, x2 = 0.1242	1198.66	1.46576	1477.1
303.15 K, x2 = 0.22	1248.02	1.45679	1417
303.15 K, x2 = 0.3191	1287.03	1.44988	1373.5
303.15 K, x2 = 0.4048	1314.63	1.4451	1344.4
303.15 K, x2 = 0.51	1342.88	1.44028	1314.7
303.15 K, x2 = 0.5945	1362.18	1.43699	1294.3
303.15 K, x2 = 0.7171	1386.09	1.43286	1268.1
303.15 K, x2 = 0.8383	1406.4	1.42932	1244.9
303.15 K, x2 = 0.9084	1416.7	1.42747	1232.4
308.15 K, x2 = 0	1098.99	1.48218	1602.3
308.15 K, x2 = 0.1242	1193.23	1.46414	1462.9
308.15 K, x2 = 0.22	1242.46	1.45525	1403.4
308.15 K, x2 = 0.3191	1281.51	1.44835	1360.3
308.15 K, x2 = 0.4048	1309.18	1.44359	1331.3
308.15 K, x2 = 0.51	1337.52	1.43881	1302.1
308.15 K, x2 = 0.5945	1356.86	1.43554	1281.8
308.15 K, x2 = 0.7171	1380.88	1.43142	1255.9
308.15 K, x2 = 0.8383	1401.28	1.42789	1233.1
308.15 K, x2 = 0.9084	1411.74	1.426	1221
313.15 K, x2 = 0	1094.9	1.48033	1585.4
313.15 K, x2 = 0.1242	1187.79	1.46253	1448.4
313.15 K, x2 = 0.22	1236.9	1.4537	1389.4
313.15 K, x2 = 0.3191	1275.99	1.44683	1346.9
313.15 K, x2 = 0.4048	1303.73	1.44209	1318.2
313.15 K, x2 = 0.51	1332.16	1.43733	1289.4
313.15 K, x2 = 0.5945	1351.54	1.43407	1269.4
313.15 K, x2 = 0.7171	1375.67	1.42997	1244
313.15 K, x2 = 0.8383	1396.16	1.42645	1221.8
313.15 K, x2 = 0.9084	1406.78	1.42456	1209.8
318.15 K, x2 = 0	1090.82	1.47841	1569.4
318.15 K, x2 = 0.1242	1182.35	1.46087	1434.3
318.15 K, x2 = 0.22	1231.34	1.45212	1375.9
318.15 K, x2 = 0.3191	1270.47	1.44527	1333.8
318.15 K, x2 = 0.4048	1298.28	1.44057	1305.5
318.15 K, x2 = 0.51	1326.8	1.43584	1276.9
318.15 K, x2 = 0.5945	1346.22	1.43261	1257.2
318.15 K, x2 = 0.7171	1370.46	1.42853	1232.2
318.15 K, x2 = 0.8383	1391.04	1.42499	1210.4
318.15 K, x2 = 0.9084	1401.82	1.42312	1198.6
323.15 K, x2 = 0	1086.75	1.47649	1553.5
323.15 K, x2 = 0.1242	1176.91	1.4592	1420.2
323.15 K, x2 = 0.22	1225.78	1.45051	1362.6
323.15 K, x2 = 0.3191	1264.95	1.44369	1320.9
323.15 K, x2 = 0.4048	1292.83	1.43902	1292.9
323.15 K, x2 = 0.51	1321.44	1.43432	1264.6
323.15 K, x2 = 0.5945	1340.9	1.4311	1245.2
323.15 K, x2 = 0.7171	1365.25	1.42704	1220.5
323.15 K, x2 = 0.8383	1385.92	1.42352	1199.1
323.15 K, x2 = 0.9084	1396.86	1.42164	1187.6
